11 compounds from PMC9151520 (Archives of Toxicology, 2022) can be followed below.

Molecules are shown by their SMILES. Structures can show the parent of a compound that is named as a salt. Where two headings read alike, the source gives them in different places.

Assay [1] deals with p53 signaling (p53RE-bla HCT-116 cells). In words: cells. Format: cell-based.
Assay [2] shares this test system.
Assay [3] has the same test system. The source holds these as a separate data set.
The mark [4] stands for this setting: Homo sapiens, HCT-116, read-out: p53 activation EC50, cherry pick confirmation.
The mark [5] stands for this setting: Homo sapiens, HCT-116, read-out: p53 activation EC50, primary screening.
The mark [6] stands for this setting: Homo sapiens, HCT-116, read-out: p53 activation efficacy, cherry pick confirmation.
Where [7] appears, read: Homo sapiens, HCT-116, read-out: p53 activation efficacy, primary screening.

In general, EC50 refers to the midpoint of the concentration-response curve.

For `CNC(=O)O/N=C/C(C)(C)SC` [Aldicarb], the “p53 activation EC50” value in assay [1], in assay [2] and in assay [3] was “inactive” throughout. Also, the p53 activation efficacy result in assay [1] is “inactive”. In the assay on p53RE-bla HCT-116 cells, the “Viability EC50” value was “inactive”. The Viability efficacy entry in the assay with p53RE-bla HCT-116 cells was “inactive”.
For `O=c1cc(-c2ccc(O)cc2)oc2cc(O)cc(O)c12` [Apigenin], the EC50 in assay [1] (setting [4]) stood at 46.5 µM. In addition, in assay [1] (setting [5]), the EC50 turned out to be 18.2 µM. Moreover, in assay [1] (setting [6]), the Emax worked out at 32.2%. In assay [1] (setting [7]), the Emax amounted to 51.2%. Moreover, in assay [2], the “p53 activation EC50, cherry pick confirmation” value was “inactive”; the “p53 activation EC50, primary screening” value was “inactive”; the “p53 activation efficacy, cherry pick confirmation” value was “inactive”; the “p53 activation efficacy, primary screening” value is “inactive”. Besides, in assay [3], the “p53 activation EC50, cherry pick confirmation” value was “inactive”; the “p53 activation EC50, primary screening” value is “inactive”; the “p53 activation efficacy, cherry pick confirmation” value is “inactive”; the “p53 activation efficacy, primary screening” value is “inactive”. In addition, in the assay on p53RE-bla HCT-116 cells, the “Viability EC50, cherry pick confirmation” value was “inactive”; the “Viability EC50, primary screening” value was “inactive”; the “Viability efficacy, cherry pick confirmation” value is “inactive”; the “Viability efficacy, primary screening” value was “inactive”.
For `CN(C)c1ccc(C(=N)c2ccc(N(C)C)cc2)cc1` [Auramine hydrochloride], in assay [1], the “p53 activation EC50, cherry pick confirmation” value was “inactive” and the “p53 activation efficacy, cherry pick confirmation” value is “inactive”. Also, the EC50 in assay [1] (setting [5]) turned out to be 3.94 µM. In addition, the Emax in assay [1] (setting [7]) stood at 37.6%. Moreover, in assay [2], the “p53 activation EC50, cherry pick confirmation” value was “inactive”; the “p53 activation EC50, primary screening” value was “inactive”; the “p53 activation efficacy, cherry pick confirmation” value was “inactive”; the “p53 activation efficacy, primary screening” value is “inactive”. Besides, in assay [3], the “p53 activation EC50, cherry pick confirmation” value is “inactive”; the “p53 activation EC50, primary screening” value is “inactive”; the “p53 activation efficacy, cherry pick confirmation” value is “inactive”; the “p53 activation efficacy, primary screening” value was “inactive”. Further, in the assay on p53RE-bla HCT-116 cells, the “Viability EC50, cherry pick confirmation” value was “inactive”; the “Viability EC50, primary screening” value was “inactive”; the “Viability efficacy, cherry pick confirmation” value is “inactive”; the “Viability efficacy, primary screening” value is “inactive”.
Take `CNC(=O)c1ccccc1Sc1ccc2c(/C=C/c3ccccn3)n[nH]c2c1` [Axitinib]: the 50% effective concentration (EC50) in assay [1] (setting [5]) came to 1.41 µM. In assay [1] (setting [6]), the Emax was determined as 56%. In addition, the Emax in assay [1] (setting [7]) was determined as 83.4%. For the same compound, in assay [2], the “p53 activation EC50, cherry pick confirmation” value was “inactive”; the “p53 activation EC50, primary screening” value was “inactive”; the “p53 activation efficacy, cherry pick confirmation” value is “inactive”; the “p53 activation efficacy, primary screening” value is “inactive”. In assay [3], the “p53 activation EC50, cherry pick confirmation” value was “inactive”; the “p53 activation EC50, primary screening” value is “inactive”; the “p53 activation efficacy, cherry pick confirmation” value is “inactive”; the “p53 activation efficacy, primary screening” value is “inactive”. In the assay on p53RE-bla HCT-116 cells, the “Viability EC50, cherry pick confirmation” value was “inactive”; the “Viability EC50, primary screening” value is “inactive”; the “Viability efficacy, cherry pick confirmation” value was “inactive”; the “Viability efficacy, primary screening” value was “inactive”.
As to `Cn1cnc([N+](=O)[O-])c1Sc1ncnc2nc[nH]c12` [Azathioprine], in assay [1], the “EC50, p53 activation, cherry pick confirmation” value was “inactive” and the “Efficacy, p53 activation, cherry pick confirmation” value was “inactive”. In assay [1] (Homo sapiens, HCT-116, read-out: EC50, p53 activation, primary screening), the EC50 stood at 33.7 µM. Moreover, the Emax in assay [1] (Homo sapiens, HCT-116, read-out: Efficacy, p53 activation, primary screening) is 39.9%. Also, in assay [2], the “EC50, p53 activation, cherry pick confirmation” value is “inactive”; the “EC50, p53 activation, primary screening” value is “inactive”; the “Efficacy, p53 activation, cherry pick confirmation” value was “inactive”; the “Efficacy, p53 activation, primary screening” value was “inactive”. In assay [3], the “EC50, p53 activation, cherry pick confirmation” value was “inactive”; the “EC50, p53 activation, primary screening” value was “inactive”; the “Efficacy, p53 activation, cherry pick confirmation” value was “inactive”; the “Efficacy, p53 activation, primary screening” value was “inactive”. Also, in the assay with p53RE-bla HCT-116 cells, the “EC50, viability, cherry pick confirmation” value is “inactive”; the “EC50, viability, primary screening” value was “inactive”; the “Efficacy, viability, cherry pick confirmation” value is “inactive”; the “Efficacy, viability, primary screening” value was “inactive”.
With `O=C(Nc1cccc(Cl)c1)OCC#CCCl` [Barban], in assay [1] (setting [4]), the concentration giving a half-maximal response (EC50) was determined as 32.3 µM. Also, the half-maximal effective concentration (EC50) in assay [1] (setting [5]) was 19 µM. In addition, the Emax in assay [1] (setting [6]) is 46.3%. Moreover, the Emax in assay [1] (setting [7]) came to 37.2%. In addition, in assay [2], the “p53 activation EC50, cherry pick confirmation” value is “inactive”; the “p53 activation EC50, primary screening” value is “inactive”; the “p53 activation efficacy, cherry pick confirmation” value is “inactive”; the “p53 activation efficacy, primary screening” value is “inactive”. Moreover, in assay [3], the “p53 activation EC50, cherry pick confirmation” value is “inactive”; the “p53 activation EC50, primary screening” value is “inactive”; the “p53 activation efficacy, cherry pick confirmation” value was “inactive”; the “p53 activation efficacy, primary screening” value was “inactive”. In the assay on p53RE-bla HCT-116 cells, the “Viability EC50, cherry pick confirmation” value is “inactive”; the “Viability EC50, primary screening” value was “inactive”; the “Viability efficacy, cherry pick confirmation” value is “inactive”; the “Viability efficacy, primary screening” value was “inactive”.
With `CCOC(=O)CCN(SN(C)C(=O)Oc1cccc2c1OC(C)(C)C2)C(C)C` [Benfuracarb], in assay [1], the “p53 activation EC50” value was “inactive” and the p53 activation efficacy result was “inactive”. Moreover, the “p53 activation EC50” value in assay [2] was “inactive”. Moreover, the “p53 activation EC50” value in assay [3] is “inactive”. In the assay with p53RE-bla HCT-116 cells, the “Viability EC50” value was “inactive” and the Viability efficacy entry was “inactive”.
Consider `CCCCNC(=O)n1c(NC(=O)OC)nc2ccccc21` [Benomyl], for which, in assay [1] (setting [4]), the EC50 was found to be 8.93 µM. Also, the EC50 in assay [1] (setting [5]) was found to be 11.4 µM. Moreover, the Emax in assay [1] (setting [6]) is 38.5%. For the same compound, in assay [1] (setting [7]), the Emax was 88.9%. In assay [2], the “p53 activation EC50, cherry pick confirmation” value was “inactive”; the “p53 activation EC50, primary screening” value was “inactive”; the “p53 activation efficacy, cherry pick confirmation” value was “inactive”; the “p53 activation efficacy, primary screening” value is “inactive”. Also, in assay [3], the “p53 activation EC50, cherry pick confirmation” value is “inactive”; the “p53 activation EC50, primary screening” value is “inactive”; the “p53 activation efficacy, cherry pick confirmation” value was “inactive”; the “p53 activation efficacy, primary screening” value is “inactive”. Moreover, in the assay on p53RE-bla HCT-116 cells, the “Viability EC50, cherry pick confirmation” value is “inactive”; the “Viability EC50, primary screening” value is “inactive”; the “Viability efficacy, cherry pick confirmation” value was “inactive”; the “Viability efficacy, primary screening” value is “inactive”.
In the case of `O=C(c1ccccc1)c1ccccc1` [Benzophenone], in assay [1], the “p53 activation EC50, cherry pick confirmation” value is “inactive”; the “p53 activation EC50, primary screening” value is “inactive”; the “p53 activation efficacy, cherry pick confirmation” value is “inactive”; the “p53 activation efficacy, primary screening” value is “inactive”. In assay [2], the “p53 activation EC50, cherry pick confirmation” value is “inactive” and the “p53 activation efficacy, cherry pick confirmation” value was “inactive”. Moreover, in assay [3], the “p53 activation EC50, cherry pick confirmation” value was “inactive” and the “p53 activation efficacy, cherry pick confirmation” value was “inactive”. For the same compound, in the assay with p53RE-bla HCT-116 cells, the “Viability EC50, cherry pick confirmation” value is “inactive”; the “Viability EC50, primary screening” value was “inactive”; the “Viability efficacy, cherry pick confirmation” value is “inactive”; the “Viability efficacy, primary screening” value is “inactive”.
As to `c1cc(OCC2CO2)ccc1Cc1ccc(OCC2CO2)cc1` (stereo not shown) [Bis[4-(glycidyloxy)phenyl]methane], in assay [1], the “Efficacy, p53 activation, cherry pick confirmation” value came to 31.4403 and the “Efficacy, p53 activation, primary screening” value turned out to be 46.3017. Besides, the EC50 in assay [1] (read-out: EC50, p53 activation, cherry pick confirmation) turned out to be 26.4 µM. For the same compound, the EC50 in assay [1] (read-out: EC50, p53 activation, primary screening) worked out at 47.6 µM. Further, in assay [2], the “EC50, p53 activation, cherry pick confirmation” value is “inactive”; the “EC50, p53 activation, primary screening” value is “inactive”; the “Efficacy, p53 activation, cherry pick confirmation” value is “inactive”; the “Efficacy, p53 activation, primary screening” value was “inactive”. In assay [3], the “EC50, p53 activation, cherry pick confirmation” value was “inactive”; the “EC50, p53 activation, primary screening” value was “inactive”; the “Efficacy, p53 activation, cherry pick confirmation” value is “inactive”; the “Efficacy, p53 activation, primary screening” value is “inactive”. Moreover, in the assay with p53RE-bla HCT-116 cells, the “EC50, viability, cherry pick confirmation” value is “inactive”; the “EC50, viability, primary screening” value was “inactive”; the “Efficacy, viability, cherry pick confirmation” value was “inactive”; the “Efficacy, viability, primary screening” value was “inactive”.
For the compound `CC(=O)Oc1ccc(C2(c3ccc(OC(C)=O)cc3)Oc3ccccc3NC2=O)cc1` [Bisoxatin acetate], in assay [1] (setting [4]), the EC50 came out at 0.665 µM. Moreover, in assay [1] (setting [5]), the EC50 turned out to be 3.99 µM. In addition, in assay [1] (setting [6]), the Emax was found to be 31.4%. Moreover, the Emax in assay [1] (setting [7]) amounted to 63.9%. In addition, in assay [2], the “p53 activation EC50, cherry pick confirmation” value is “inactive”; the “p53 activation EC50, primary screening” value was “inactive”; the “p53 activation efficacy, cherry pick confirmation” value is “inactive”; the “p53 activation efficacy, primary screening” value was “inactive”. Moreover, in assay [3], the “p53 activation EC50, cherry pick confirmation” value was “inactive”; the “p53 activation EC50, primary screening” value is “inactive”; the “p53 activation efficacy, cherry pick confirmation” value is “inactive”; the “p53 activation efficacy, primary screening” value is “inactive”. For the same compound, in the assay on p53RE-bla HCT-116 cells, the “Viability EC50, cherry pick confirmation” value was “inactive”; the “Viability EC50, primary screening” value is “inactive”; the “Viability efficacy, cherry pick confirmation” value is “inactive”; the “Viability efficacy, primary screening” value was “inactive”.
